# Reference: PMC12257510, “Structure-Guided Design of a KMT9 Inhibitor Prodrug with Cellular Activity” (Journal of Medicinal Chemistry, 2025)
# Read-outs that look alike come from different tables or passages of the source.
# Assays:
# KMT9 [1] = target: T1, KMT9 (Homo sapiens, UniProt Q9Y5N5); assay: Thermal shift assay (SyproOrange); assay type: binding; conditions: read-out: ΔTm
# T1 sequence (Q9Y5N5 1-214): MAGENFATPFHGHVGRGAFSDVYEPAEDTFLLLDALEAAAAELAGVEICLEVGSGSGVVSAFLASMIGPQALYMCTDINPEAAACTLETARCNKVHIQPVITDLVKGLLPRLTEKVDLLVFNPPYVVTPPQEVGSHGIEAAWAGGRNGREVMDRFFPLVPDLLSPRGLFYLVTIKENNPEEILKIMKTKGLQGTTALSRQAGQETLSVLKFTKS
# T1 sequence (Q9UI30 1-125 partner): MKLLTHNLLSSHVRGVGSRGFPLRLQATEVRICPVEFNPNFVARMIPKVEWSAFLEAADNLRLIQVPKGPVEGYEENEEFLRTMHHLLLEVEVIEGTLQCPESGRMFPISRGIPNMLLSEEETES
# Experimental: The assay was carried out in 96-well Hard-Shell PCR plates (Bio-Rad Laboratories Inc.). […] Final assay concentrations were set to 500 μM of compound 8, 2 μM KMT9 and 5× SO. One μL of 20× compound, 4 μL of assay buffer, 10 μL of 2× KMT9 and 5 μL of 4× SO were pipetted. For the no-compound control, 20× inhibitor stock was replaced by DMSO. The final volume was 20 μL. The plate was spun down at 700 rpm for 1 min using a Hettich UNIVERSAL 320 centrifuge and incubated at 25 °C, shaking at 600 rpm. After incubation, the plate was spun down for 1 min at 700 rpm and measurement was conducted using a CFX96 Touch Real-Time PCR Detection System (Bio-Rad Laboratories Inc.). The plate was equilibrated at 20 °C for 4 min and then heated stepwise at a rate of 1 °C per 15 s until 95 °C. After every step, fluorescence was measured in FRET mode. Calculation of melting points was conducted by a Boltzman sigmoidal model using GraphPad Prism 7.0.
# KMT9 [2] = target: T1, KMT9; assay: Microscale thermophoresis (MST) binding assay
# Experimental: To determine the binding affinity of the compound and KMT9, microscale thermophoresis (MST) analysis was performed with a NanoTemper Monolith NT.115 instrument (NanoTemper Technologies GmbH). KMT9 was labeled with a RED-Tris-NTA labeling kit (NanoTemper Technologies GmbH) based on the manufacturer’s instructions. Buffer including 25 mM HEPES (pH 7.5), 100 mM NaCl, 1 mM DTT and 0.05% Tween was used for the reaction buffer. Varying concentrations of compounds were titrated against His-tag labeled KMT9 proteins (20 nM). Samples were loaded into standard Capillaries (NanoTemper Technologies GmbH) and MST measurements were performed using 40% MST power and 100% LED power. For each set of binding experiments, MST measurement was carried out with Binding Affinity module in MO. Control program under Nano-RED excitation. Data sets were processed with the MO.Affinity Analysis software (NanoTemper Technologies GmbH).
# KMT9 [3] = target: T1, KMT9; assay: KMT9 methyltransferase inhibition assay (3H-SAM, ETF1 substrate)
# Experimental: The assay was carried out in 0.5 mL Eppendorf tubes in duplicates. Assay buffer consisted of 50 mM BTP, 1 mM MgCl2, 1 mM DTT and 0,01% Triton-X100 at a pH of 8.5 (adjusted using 1 M HCl and 1 M NaOH). 20X inhibitor stock (in DMSO), 2× enzyme stock and 4× substrate mix (both in assay buffer) were prepared. The substrate mix consisted of Tritium-labeled S-adenosylmethionine (3H-SAM), S-adenosylmethionine (SAM) and eukaryotic peptide chain release factor subunit1 (, residues 140–275) (ETF1). Final assay concentrations were set to 25 nM KMT9, 0.3 μM 3H-SAM, 0.7 μM SAM and 5 μM ETF1. […] Five μL of 4× substrate mix was added to initiate the reaction. The final reaction volume was 20 μL. For the positive control, the compound was replaced by DMSO; for the negative control, the compound was replaced by DMSO and KMT9 was replaced by assay buffer. The reaction mix was incubated in an Eppendorf thermomixer comfort at 30 °C for 2 h, shaking at 300 rpm. The reaction was quenched using 5 μL 50% trichloroacetic acid (TCA) and incubated at 25 °C for 5 min. Twenty-two μL of the mixture was transferred into 96-well MultiScreenHTS FB filter plates (Merck KGaA, Darmstadt, Germany) and washed four times with 10% TCA and two times with 100% ethanol. The plate was dried overnight, the filters were transferred into individual 6 mL Pony Vials (PerkinElmer Inc., Waltham, MA, USA) and incubated in 3 mL of Ultima Gold scintillation cocktail (PerkinElmer Inc., Waltham, MA, USA) for 30 min. The scintillation signal was measured for 3× 1 min using TriCarb 2910 TR (PerkinElmer) scintillation counter in 3H CPM mode (LL: 0, UL: 18.6).
# Inhibition was calculated using the following formula: Inhibition[%]=(1−xc−xpos/xpos−xneg)×100
# With xc: signal of compound, xpos: mean signal of positive control, xneg: mean signal of negative control. Data fitting was carried out by GraphPad 7.0 using nonlinear fit ([Inhibitor] vs response – variable slope (four parameters)).
# [4] = thermal shift, 2 μM KMT9, 500 μM compound
# [5] = MST, binding to KMT9, read-out: Kd
ΔTm at 500 µM (KMT9 [1]; [4]) [°C],Kd (KMT9 [2]; [5]) [µM],Decrease of binding affinity compared to compound 7b (KMT9 [2]; Kd ratio vs compound 7b),Compound,ΔTm at 500 µM (KMT9 [1]) [°C],Kd (KMT9 [2]) [µM],IC50 (KMT9 [3]) [µM],Reduction of potency compared to compound 2d (KMT9 [2]; vs compound 2d) [fold]
,,,"NCCCN(CCC(N)C(F)F)C[C@H]1O[C@@H](n2cnc3c(N)ncnc32)[C@H](O)[C@@H]1O (stereo partly drawn) [compound 4b, (2R,3S,4R,5R)-2-(((3-Amino-4,4-difluorobutyl)(3-aminopropyl)amino)methyl)-5-(6-amino-9H-purin-9-yl)tetrahydrofuran-3,4-diol]",2.86,100,200,
3.43,> 500,,"NCCCN(CCC(N)C(F)(F)F)C[C@H]1O[C@@H](n2cnc3c(N)ncnc32)[C@H](O)[C@@H]1O (stereo partly drawn) [compound 4c, (2R,3S,4R,5R)-2-(((3-Amino-4,4,4-trifluorobutyl)(3-aminopropyl)amino)methyl)-5-(6-amino-9H-purin-9-yl)tetrahydrofuran-3,4-diol]",,,500,
,,,"Nc1ncnc2c1ncn2[C@@H]1O[C@H](CN(CCCNCCCc2ccccc2)CC[C@H](N)C(=O)O)[C@@H](O)[C@H]1O [compound 5c, (S)-2-Amino-4-((((2R,3S,4R,5R)-5-(6-amino-9H-purin-9-yl)-3,4-dihydroxytetrahydro-furan-2-yl)methyl)(3-((3-phenylpropyl)amino)propyl)amino)butanoic acid]",21.3,0.02,0.064,
,~56,more than 1000 fold,"CNc1ncnc2c1ccn2C1CC(CN(CCCOCCc2ccc(Oc3ccc(Cl)cc3)c(F)c2)CCC(N)C(=O)O)C(O)C1O [compound 7b-N, (S)-2-Amino-4-((3-(4-(4-chlorophenoxy)-3-fluorophenethoxy)propyl)(((1R,2R,3S,4R)-2,3-dihydroxy-4-(4-(methylamino)-7H-pyrrolo[2,3-d]pyrimidin-7-yl)cyclopentyl)methyl)amino)butanoic Acid]",,,,
,,,"Nc1ncnc2c1ncn2[C@@H]1O[C@H](CN(CCCNCc2ccccc2)CC[C@H](N)C(=O)O)[C@@H](O)[C@H]1O [compound 5a, (S)-2-Amino-4-((((2R,3S,4R,5R)-5-(6-amino-9H-purin-9-yl)-3,4-dihydroxytetrahydrofuran-2-yl)methyl)(3-(benzylamino)propyl)amino)butanoic acid]",19.6,0.04,0.1,
,,,Nc1ncnc2c1ncn2[C@@H]1O[C@H](CN(CC[C@H](N)C(=O)O)CC[C@H](N)c2ccccc2)[C@@H](O)[C@H]1O [compound 2a],10.6,15,3,
,6.8,,"Nc1ncnc2c1ncn2[C@@H]1O[C@H](CN(CC[C@H](N)C(=O)O)CC[C@H](N)C(=O)O)[C@@H](O)[C@H]1O [compound 1, (2S,2’S)-4,4’-((((2R,3S,4R,5R)-5-(6-Amino-9H-purin-9-yl)-3,4-dihydroxytetrahydrofuran-2-yl)methyl)azanediyl)bis(2-aminobutanoic Acid)]",,,,
,10.9,,"Nc1ncnc2c1ncn2[C@@H]1O[C@H](CSCC[C@H](N)C(=O)O)[C@@H](O)[C@H]1O [SAH, S-adenosyl-L-homocysteine, reference compound]",,,,
17.5,0.07,,"CNc1ncnc2c1ccn2[C@@H]1C[C@H](CN(CCCNCCc2ccc(Oc3ccccc3)cc2)CC[C@H](N)C(=O)O)[C@@H](O)[C@H]1O [compound 7a, (S)-2-Amino-4-((((1R,2R,3S,4R)-2,3-dihydroxy-4-(4-(methylamino)-7H-pyrrolo[2,3-d]pyrimidin-7-yl)cyclopentyl)methyl)(3-((4-phenoxyphenethyl)amino)propyl)amino) Butanoic acid]",,,0.6,
,,,"Nc1ncnc2c1ncn2[C@@H]1O[C@H](CN(CCCNCCc2ccccc2)CC[C@H](N)C(=O)O)[C@@H](O)[C@H]1O [compound 5b, (S)-2-Amino-4-((((2R,3S,4R,5R)-5-(6-amino-9H-purin-9-yl)-3,4-dihydroxytetrahydrofuran-2-Yyl)methyl)(3-(phenethylamino)propyl)amino)butanoic acid]",20.9,0.01,0.034,
,,,"NCCCN(C[C@H]1C=CCN1)C[C@H]1O[C@@H](n2cnc3c(N)ncnc32)[C@H](O)[C@@H]1O [compound 4f, (2R,3R,4S,5R)-2-(6-Amino-9H-purin-9-yl)-5-(((3-aminopropyl)(((R)-2,5-dihydro-1H-pyrrol-2-yl)methyl)amino)methyl)tetrahydrofuran-3,4-diol]",-0.52,> 500,253,

Compound,ΔTm at 500 µM (KMT9 [1]; [4]) [°C],Kd (KMT9 [2]; [5]) [µM],Decrease of binding affinity compared to compound 7b (KMT9 [2]; Kd ratio vs compound 7b),ΔTm at 500 µM (KMT9 [1]) [°C],Kd (KMT9 [2]) [µM],IC50 (KMT9 [3]) [µM],Reduction of potency compared to compound 2d (KMT9 [2]; vs compound 2d) [fold]
"CN(C)CCCN(CC[C@H](N)C(=O)O)C[C@H]1O[C@@H](n2cnc3c(N)ncnc32)[C@H](O)[C@@H]1O [compound 3b, reference compound]",,1,,9.55,,6,~100
"C[C@@H](CN(CCCN)C[C@H]1O[C@@H](n2cnc3c(N)ncnc32)[C@H](O)[C@@H]1O)N1CCC(O)CC1 [compound 4e, (2R,3R,4S,5R)-2-(6-Amino-9H-purin-9-yl)-5-(((3-aminopropyl)((s)-2-(4-hydroxypiperidin-1-yl)propyl)amino)methyl)tetrahydrofuran-3,4-diol]",,50,,2.78,,> 500,
